According to patent US20030224978A1, “Compounds and methods for modulating apoptosis” (McGill University, priority 1996, published 2003):
Entries after “also recorded” stand apart in the source; their conditions may differ. Read-outs that look alike come from different tables or passages of the source. Positions of bridges follow the written chain, without caps; N, C: chain ends. Residues, ends and D or L forms follow the SMILES beside them.

Tests used:
PC-3 [1] = format: cell-based; settings: human
Description: (§1) N-Ac-CHAVC-NH2 (SEQ ID NO:10) and the control peptide N-Ac-CHGVC-NH2 (SEQ ID NO:20) were evaluated for possible cytotoxic effects on human microvascular endothelial (HMVEC; Clonetics), human umbilical vein endothelial (HUVEC; ATCC #CRL-1730), IAFp2 (human fibroblast cell line; Institute Armand-Frapier, Montreal, Quebec), WI-38 (human fibroblast cell line; ATCC #CCL-75), MDA-MB231 (human breast cancer cell line; ATCC #HTB-26), and PC-3 (human prostate cancer cell line; ATCC #CRL-1435) cells utilizing the MTT assay (Plumb et al., Cancer Res. 49:4435-4440, 1989). Neither of the peptides was cytotoxic at concentrations up to and including 100 μM. Similarly, neither of the peptides was capable of inhibiting the proliferation of the above cell lines at concentrations up to 100 μM, as judged by ^3H-thymidine incorporation assays.

MDA-MB231 = format: cell-based; settings: human
Description: as §1

in vitro [2] = format: cell-based; settings: human
Description: as §1

WI-38 = format: cell-based, human; settings: 3 h
Description: as §1

HMVEC = format: cell-based, human; settings: 3 h
Description: as §1

PC-3 [3] = format: cell-based, human; settings: 3 h
Description: as §1

IAFp2 = format: cell-based, human; settings: 3 h
Description: as §1

in vitro [4] = format: cell-based; settings: human; remark: listed apart in the source
Description: as §1

in vitro [5] = format: cell-based; settings: human; remark: listed apart in the source
Description: as §1

SKOV3 cells = assay: Disruption of human ovarian cancer cell (SKOV3) adhesion; format: cell-based; settings: 0.01-1 mg/mL, up to 48 hours
Text: Within one representative cell adhesion assay, the addition of a modulating agent to cells that express a cadherin results in disruption of cell adhesion. A “cadherin-expressing cell,” as used herein, may be any type of cell that expresses at least one cadherin on the cell surface at a detectable level, using standard techniques such as immunocytochemical protocols (Blaschuk and Farookhi, Dev. Biol. 136:564-567, 1989). Cadherin-expressing cells include endothelial (e.g., bovine pulmonary artery endothelial cells), epithelial and/or cancer cells (e.g., the human ovarian cancer cell line SKOV3 (ATCC #HTB-77)). For example, such cells may be plated under standard conditions that permit cell adhesion in the presence and absence of modulating agent (e.g., 500 μg/mL). Disruption of cell adhesion may be determined visually within 24 hours, by observing retraction of the cells from one another.
The human ovarian cancer cell line SKOV3 (ATCC #HTB-77) expresses N-cadherin. SKOV3 cells were cultured in a modified MEM-based media containing 10% FCS. Cells were grown in T-250 culture flasks and maintained by periodic subculturing. Cyclic peptides were tested on cells grown in individual wells of 96-well culture dishes (surface area of each well was 0.32 cm^2). Cells were harvested from flasks and seeded at a density of 50,000 cells per well in 0.1 mL media containing the cyclic peptides at concentrations of 1, 0.1, or 0.01 mg/mL, or in the absence of cyclic peptide. Media control wells were also established. Cultures were evaluated periodically by microscopic examination under both bright field and phase contrast conditions. Cultures were maintained for 48 hours.

in vitro [6] = format: cell-based; settings: human; remark: listed apart in the source
Description: as §1

chick N-cadherin = biological target: T1, chick N-cadherin (Gallus gallus, UniProt P10288); assay: N-cadherin dependent neurite outgrowth of rat cerebellar neurons on N-cadherin expressing 3T3 cells (Example 14); format: cell-based
T1 construct: expressed in transfected cells; host or cells: 3T3 fibroblasts
T1 sequence (P10288 165-912): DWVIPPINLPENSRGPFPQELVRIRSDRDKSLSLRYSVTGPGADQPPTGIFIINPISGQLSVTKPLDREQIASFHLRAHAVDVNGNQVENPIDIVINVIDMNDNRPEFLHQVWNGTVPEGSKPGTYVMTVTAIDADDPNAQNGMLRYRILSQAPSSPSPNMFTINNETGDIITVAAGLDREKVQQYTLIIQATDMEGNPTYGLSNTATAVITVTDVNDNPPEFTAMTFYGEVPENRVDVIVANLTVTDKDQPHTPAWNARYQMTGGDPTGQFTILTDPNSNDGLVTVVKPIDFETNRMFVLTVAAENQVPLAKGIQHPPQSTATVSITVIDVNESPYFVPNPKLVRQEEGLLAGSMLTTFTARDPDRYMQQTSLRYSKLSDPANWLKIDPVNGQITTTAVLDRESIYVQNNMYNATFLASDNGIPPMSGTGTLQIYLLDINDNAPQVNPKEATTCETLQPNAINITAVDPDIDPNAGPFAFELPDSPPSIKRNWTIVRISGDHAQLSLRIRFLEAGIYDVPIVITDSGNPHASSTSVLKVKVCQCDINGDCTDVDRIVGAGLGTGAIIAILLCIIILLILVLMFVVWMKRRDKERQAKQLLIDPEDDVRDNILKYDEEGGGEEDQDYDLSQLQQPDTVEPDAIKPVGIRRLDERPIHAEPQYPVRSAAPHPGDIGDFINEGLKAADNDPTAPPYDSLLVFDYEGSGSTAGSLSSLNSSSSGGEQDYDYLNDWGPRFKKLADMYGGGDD
Description: (§2) Cell culture and neurite outgrowth assays. Co-cultures of cerebellar neurons on monolayers of control 3T3 cells and monolayers of transfected 3T3 cells that express physiological levels of chick N-cadherin or human L1 were established as previously described (Williams et al., Neuron 13:583-594, 1994). In brief, 80,000 3T3 cells (control and transfected) were plated into individual chambers of an eight-chamber tissue culture slide coated with polylysine and fibronectin and cultured in DMEM/10% FCS. After 24 hours, when confluent monolayers had formed, the medium was removed and 3000 cerebellar neurons isolated from post-natal day 2-3 rats were plated into each well in SATO media (Doherty et al., Nature 343:464-466, 1990) supplemented with 2% FCS. All of the test peptides were added immediately before the neurons as a 2×stock prepared in SATO/2% FCS. The co-cultures were maintained for 16-18 hours, at which time they were fixed and immunostained for GAP-43 which is present only in the neurons and delineates the neuritic processes. The mean length of the longest neurite per cell was measured for 150-200 neurons sampled in replicate cultures as previously described (Williams et al., Neuron 13:583-594, 1994). […] Dose-response curves were evaluated and the EC50 values determined.
Effects of cyclic HAV peptides on N-cadherin function. The ability of N-Ac-CHAVC-NH2 (SEQ ID NO:10; compound 1) to inhibit neurite outgrowth was initially tested. This cyclic peptide has the cadherin CAR sequence (HAV) and no flanking amino acid residues. Neurons were cultured on confluent monolayers of control (untransfected) and N-cadherin expressing 3T3 cells for 16-18 hours. The cells were then fixed and the length of the longest neurite on 150-200 neurons was determined by standard assay, as described above. FIG. 24 gives the mean neurite length in a representative experiment where cerebellar neurons have been cultured over control and N-cadherin expressing cells. In the absence of peptide, the mean length of the longest neurite per cell was approximately double on the N-cadherin expressing cells, as compared to 3T3 cells. This response requires N-cadherin function in both the neuron and transfected fibroblast.

L1 = L1 (Homo sapiens, UniProt P32004); assay: L1 response: neurite outgrowth of rat cerebellar neurons on L1 expressing 3T3 cells (Example 14); format: cell-based; design: expressed in transfected cells; host or cells: 3T3 cells (stably transfected); settings: 100 μg/mL, concentrations that substantially inhibited the N-cadherin response
Description: FIG. 26 is a bar graph illustrating the effects of the cyclic peptides N-Ac-CHAVDC-NH2 (SEQ ID NO:11), N-Ac-CHAVDIC-NH2 (SEQ ID NO:62) and N-Ac-[…]-NH2 (SEQ ID NO:63) on L1 function. Cerebellar neurons were cultured on monolayers of control 3T3 cells and L1 expressing 3T3 cells for 16-18 hours in control media (unshaded) or control media supplemented with peptides N-Ac-CHAVDC-NH2 (SEQ ID NO:11; diagonal rising right), N-Ac-CHAVDIC-NH2 (SEQ ID NO:62); diagonal cross hatch) or N-Ac-[…]-NH2 (SEQ ID NO:63; diagonal rising left) at a concentration of 100 μg/mL. The cultures were then fixed and neurite outgrowth determined by measuring the length of the longest neurite from a total of 150-200 neurons sampled in replicate cultures for each experimental condition. […] The results are pooled from three independent experiments, and the bars show the s.e.m.
as §2, with “The co-cultures were maintained for 16-18 hours, at which time they were fixed and immunostained for GAP-43 which is present only in the neurons and delineates the neuritic processes.” left out, “determined. […]” for “determined.”

L1, sequence (P32004 20-1257): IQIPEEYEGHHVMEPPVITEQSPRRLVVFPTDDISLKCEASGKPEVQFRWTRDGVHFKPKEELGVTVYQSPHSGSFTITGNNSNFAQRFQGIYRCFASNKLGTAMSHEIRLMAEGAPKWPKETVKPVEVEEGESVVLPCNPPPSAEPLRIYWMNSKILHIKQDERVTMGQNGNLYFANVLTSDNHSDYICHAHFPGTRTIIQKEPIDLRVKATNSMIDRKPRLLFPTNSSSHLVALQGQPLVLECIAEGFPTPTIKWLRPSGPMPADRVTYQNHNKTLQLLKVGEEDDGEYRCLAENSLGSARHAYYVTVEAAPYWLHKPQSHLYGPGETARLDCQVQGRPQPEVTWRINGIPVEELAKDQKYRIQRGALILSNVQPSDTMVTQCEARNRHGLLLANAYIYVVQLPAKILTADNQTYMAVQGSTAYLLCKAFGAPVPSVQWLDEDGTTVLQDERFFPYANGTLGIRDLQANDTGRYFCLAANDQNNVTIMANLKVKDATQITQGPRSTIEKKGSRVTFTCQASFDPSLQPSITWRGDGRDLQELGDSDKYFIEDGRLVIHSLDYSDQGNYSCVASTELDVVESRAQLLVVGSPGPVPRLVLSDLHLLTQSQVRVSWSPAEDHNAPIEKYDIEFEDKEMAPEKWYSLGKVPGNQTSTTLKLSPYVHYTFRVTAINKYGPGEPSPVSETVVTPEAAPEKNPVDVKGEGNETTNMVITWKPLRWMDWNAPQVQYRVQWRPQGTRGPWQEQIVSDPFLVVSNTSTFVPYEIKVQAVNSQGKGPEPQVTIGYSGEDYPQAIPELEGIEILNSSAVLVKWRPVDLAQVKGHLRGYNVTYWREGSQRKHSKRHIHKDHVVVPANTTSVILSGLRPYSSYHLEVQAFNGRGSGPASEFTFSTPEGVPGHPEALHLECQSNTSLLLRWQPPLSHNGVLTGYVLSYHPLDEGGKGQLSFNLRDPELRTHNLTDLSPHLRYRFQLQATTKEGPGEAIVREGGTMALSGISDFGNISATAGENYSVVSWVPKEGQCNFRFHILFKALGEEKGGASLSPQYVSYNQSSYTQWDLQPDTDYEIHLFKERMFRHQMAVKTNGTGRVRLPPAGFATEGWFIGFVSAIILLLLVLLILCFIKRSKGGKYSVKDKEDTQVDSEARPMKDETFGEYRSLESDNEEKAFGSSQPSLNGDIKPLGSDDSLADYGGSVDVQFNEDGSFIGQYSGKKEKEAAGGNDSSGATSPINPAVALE

IC50 (PC-3 [1]) [µM] | IC50 (MDA-MB231) [µM] | IC50 (in vitro [2]) [µM] | IC50 (HMVEC) [µM] | IC50 (PC-3 [3]) [µM] | IC50 (IAFp2) [µM] | IC50 (in vitro [4]) [µM] | IC50 (in vitro [5]) [µM] | IC50 (in vitro [6]) [µM] | inhibition at 125 µg/mL (chick N-cadherin; NIH3T3, 125 μg/mL, 16-18 hours) [%] | EC50 (chick N-cadherin; from dose-response curve) [µM] | Compound | IC50 (WI-38) [µM] | activity on SKOV3 cell adhesion (SKOV3 cells) | inhibitory activity on N-cadherin dependent neurite outgrowth, in words (chick N-cadherin; Tables 8 and 9, 250 or 125 μg/mL) | effect on L1 response (neurite outgrowth over L1 expressing 3T3 cells) (L1)
> 100 | > 100 | > 100 | > 100 | > 100 | > 100 | > 100 | > 100 | > 100 | – | – | CC(=O)N[C@H]1CCCCNC(=O)C[C@@H](C(N)=O)NC(=O)[C@H](C(C)C)NC(=O)[C@H](C)NC(=O)[C@H](Cc2c[nH]cn2)NC1=O (Ac-KHAVD-NH2; lactam 1-5 (inferred)) | > 100 | inactive | – | –
– | – | – | – | – | – | – | – | – | 62 ± 3.4 | 70 | CC[C@H](C)[C@@H]1NC(=O)[C@H](CC(=O)O)NC(=O)[C@H](C(C)C)NC(=O)[C@H](C)NC(=O)[C@H](Cc2c[nH]cn2)NC(=O)[C@@H](NC(C)=O)CSSC[C@@H](C(N)=O)NC(=O)[C@H](CC(N)=O)NC1=O (Ac-CHAVDINC-NH2; disulfide 1-8) | – | – | only a slight loss in activity; also recorded: potent inhibitors | did not interfere with the ability of neurons to extend neurites over 3T3 cells expressing L1; also recorded: not inhibited
